Reference: patent US8361496B2, “Phospholipid gel compositions for drug delivery and methods of treating conditions using same” (Idexx Laboratories Inc., priority 2004, dated 2013)

Assay: Clinical study 5.16: serum concentration of tilmicosin after oral administration
Type: in vivo
Conditions: oral 20 mg/kg, gelatin capsule with the gel of Example 5.14
Procedure: Tilmicosin was orally administered to a dog using the pharmaceutical composition of Example 5.14. A sufficient amount of the gel of example 5.14 was placed in a gelatin capsule to provide a dose of 20 mg/kg to the dog. The dog was then orally administered the gelatin capsule containing the tilmicosin pharmaceutical composition of Example 5.14. Blood was then withdrawn from the dog at various time intervals and the serum concentration of tlmicosin determined by the following procedure: (i) A C-18 cartridge (commercially available from Waters Corp. of Milford, Mass.) was connected to a 20 mL syringe and to a single diaphragm vacuum pump (commercially available from Gast Manufacturing Inc. of Benton Harbor, Mich.). […]

time for which tilmicosin is provided in the blood of the dog: at least 48 h
Compound: CC[C@H]1OC(=O)C[C@@H](O)[C@H](C)[C@@H](O[C@@H]2O[C@H](C)[C@@H](O)[C@H](N(C)C)[C@H]2O)[C@@H](CCN2C[C@H](C)C[C@H](C)C2)C[C@@H](C)C(=O)/C=C/C(C)=C/[C@@H]1CO[C@@H]1O[C@H](C)[C@@H](O)[C@@H](OC)[C@H]1OC [Tilmicosin]
